Consider three molecules from US8507535B2 (Hoffmann-La Roche Inc., priority 2010, dated 2013).

SMILES strings stand for the structures. Where two headings read alike, the source gives them in different places.

The conditions of test [1]: phase II trial, cited from earlier work.
For a further test, the target named is human NK3 receptor (Homo sapiens (Human), UniProt P29371). The test can be described thus: [3H]SR142801 competition binding assay. The note with it: membranes from HEK293 cells transiently expressing recombinant human NK3 receptor, [3H]SR142801 radioligand. How it is done: [^3H]SR142801 Competition Binding Assay
human NK3 receptor, sequence (P29371 whole entry): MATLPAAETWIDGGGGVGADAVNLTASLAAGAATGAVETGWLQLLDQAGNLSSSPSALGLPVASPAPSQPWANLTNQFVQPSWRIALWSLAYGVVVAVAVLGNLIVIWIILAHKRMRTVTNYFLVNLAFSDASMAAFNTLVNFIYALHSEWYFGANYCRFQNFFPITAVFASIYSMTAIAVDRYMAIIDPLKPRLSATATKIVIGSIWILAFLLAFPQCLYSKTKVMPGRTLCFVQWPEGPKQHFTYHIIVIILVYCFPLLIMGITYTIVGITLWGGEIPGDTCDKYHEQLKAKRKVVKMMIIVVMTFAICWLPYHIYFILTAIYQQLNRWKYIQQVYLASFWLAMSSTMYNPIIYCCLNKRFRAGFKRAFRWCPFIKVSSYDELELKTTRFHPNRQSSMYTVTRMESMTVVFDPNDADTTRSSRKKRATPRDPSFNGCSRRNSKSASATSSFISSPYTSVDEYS
hNK3 receptor binding experiment were performed using [^3H]SR142801 (Catalog No. TRK1035, specific activity: 74.0 Ci/mmol, Amersham, GE Healthcare UK limited, Buckinghamshire, UK) and membrane isolated from HEK293 cells transiently expressing recombinant human NK3 receptor. After thawing, the membrane homogenates were centrifuged at 48,000×g for 10 min at 4° C., the pellets were resuspended in the 50 mM Tris-HCl, 4 mM MnCl2, 1 μM phosphoramidon, 0.1% BSA binding buffer at pH 7.4 to a final assay concentration of 5 μg protein/well. For inhibition experiments, membranes were incubated with [^3H]SR142801 at a concentration equal to KD value of radioligand and 10 concentrations of the inhibitory compound (0.0003-10 μM) (in a total reaction volume of 500 μl) for 75 min at room temperature (RT). At the end of the incubation, membranes were filtered onto unitfilter (96-well white microplate with bonded GF/C filter preincubated 1 h in 0.3% PEI+0.3% BSA, Packard BioScience, Meriden, Conn.) with a Filtermate 196 harvester (Packard BioScience) and washed 4 times with ice-cold 50 mM Tris-HCl, pH 7.4 buffer. Nonspecific binding was measured in the presence of 10 μM SB222200 for both radioligands. The radioactivity on the filter was counted (5 min) on a Packard Top-count microplate scintillation counter with quenching correction after addition of 45 μl of microscint 40 (Can berra Packard S. A., Zurich, Switzerland) and shaking for 1 h. Inhibition curves were fitted according to the Hill equation: y=100/(1+(x/IC50)^nH), where nH=slope factor using Excel-fit 4 software (Microsoft). IC50 values were derived from the inhibition curve and the affinity constant (Ki) values were calculated using the Cheng-Prussoff equation Ki=IC50/(1+[L]/KD) where [L] is the concentration of radioligand and KD is its dissociation constant at the receptor, derived from the saturation isotherm. All experiments were performed in duplicate and the mean±standard error (SEM) of the individual Ki values was calculated.

Regarding `CC(=O)N(C)C1(c2ccccc2)CCN(CCC[C@]2(c3ccc(Cl)c(Cl)c3)CCCN(C(=O)c3ccccc3)C2)CC1` [SR 142,801, Osanetant], in test [1] (altered behaviour, delusion, hallucinations, extreme emotions, excited motor activity, incoherent speech), the “activity on positive symptoms of schizophrenia” value is “active on positive symptoms of schizophrenia”. Further, the “activity on negative symptoms of schizophrenia” value in test [1] (depression, anhedonia, social isolation, memory and attention deficits) is “inactive in the treatment of negative symptoms”.

For orientation: Ki means a measure of affinity in units of concentration, obtained from inhibition or displacement. For `C[C@]1(COc2ccc(Cl)cn2)CN(C(=O)N2CCN(S(C)(=O)=O)CC2)C[C@@H]1c1ccc(Cl)cc1` (racemic) [Example 2, [(3RS,4RS)-4-(4-Chloro-phenyl)-3-(5-chloro-pyridin-2-yloxymethyl)-3-methyl-pyrrolidin-1-yl]-(4-methanesulfonyl-piperazin-1-yl)-methanone], the Ki on human NK3 receptor (read-out: Ki (uM) hNK3) came to 0.0478 µM. For `Cc1ccc(N2CCC(C(=O)N3C[C@H](c4ccc(Cl)cc4)[C@@](C)(COc4ccc(Cl)cn4)C3)CC2)nc1` (racemic) [Example 15, [(3RS,4RS)-4-(4-Chloro-phenyl)-3-(5-chloro-pyridin-2-yloxymethyl)-3-methyl-pyrrolidin-1-yl]-(5′-methyl-3,4,5,6-tetrahydro-2H-[1,2′]bipyridinyl-4-yl)-methanone], the inhibition constant Ki at human NK3 receptor (second half of table, head prints nM, read-out: Ki (nM) hNK3) is 0.015 µM.
